Legend:
[1] = test system: Beet Armyworm (Spodoptera exigua, LAPHEG); experiment: Bioassay on Beet Armyworm (BAW), 128-well diet tray assay; format: in vivo; conditions: for mortality at 50 µg/cm2: 168 h, 50 μg/cm^2 on artificial diet, second instar larvae, five to seven days, 25° C., read-out: BAW % Control (or Mortality) rating
Protocol: (§1) Example A: Bioassays on Beet Armyworm (Spodoptera Exigua, LAPHEG) (“BAW”), Corn Earworm (Helicoverpa zea, HELIZE) (“CEW”), and Cabbage Looper (Trichoplusia ni, TRIPNI) (“CL”)
(§2) Certain molecules disclosed in this document were tested against BAW, CEW, and CL using procedures described in the following examples. In the reporting of the results, the “BAW, CEW, & CL Rating Table” was used (See Table Section).
Bioassays on BAW were conducted using a 128-well diet tray assay. One to five second instar BAW larvae were placed in each well (3 mL) of the diet tray that had been previously filled with 1 mL of artificial diet to which 50 μg/cm^2 of the test molecule (dissolved in 50 μL of 90:10 acetone-water mixture) had been applied (to each of eight wells) and then allowed to dry. Trays were covered with a clear self-adhesive cover and held at 25° C., 14:10 light-dark for five to seven days. Percent mortality was recorded for the larvae in each well; activity in the eight wells was then averaged. The results are indicated in the table entitled “Table ABC: Biological Results” (See Table Section).
(§3) Bioassays on BAW and CL were conducted according to the procedures outlined in Example A: Bioassays on Beet Armyworm (“BAW”) and Cabbage Looper (“CL”) using the indicated concentrations.

[2] = test system: Cabbage Looper (Trichoplusia ni, TRIPNI); experiment: Bioassay on Cabbage Looper (CL), 128-well diet tray assay; format: in vivo; conditions: for mortality at 50 µg/cm2: 168 h, 50 μg/cm^2 on artificial diet, second instar larvae, five to seven days, 25° C., read-out: CL % Control (or Mortality) rating
Protocol: as §1, §2
Bioassays on CL were conducted using a 128-well diet tray assay. One to five second instar CL larvae were placed in each well (3 mL) of the diet tray that had been previously filled with 1 mL of artificial diet to which 50 μg/cm^2 of the test molecule (dissolved in 50 μL of 90:10 acetone-water mixture) had been applied (to each of eight wells) and then allowed to dry. Trays were covered with a clear self-adhesive cover and held at 25° C., 14:10 light-dark for five to seven days. Percent mortality was recorded for the larvae in each well; activity in the eight wells was then averaged. The results are indicated in the table entitled “Table ABC: Biological Results” (See Table Section).
as §3

| Structure (SMILES) | mortality at 50 µg/cm2 [1] [%] | mortality at 50 µg/cm2 [2] [%] | further results |
| --- | --- | --- | --- |
| CC(C)(CS(C)(=O)=O)NC(=O)c1ccc(/C(F)=C/C(c2cc(Cl)c(Cl)c(Cl)c2)C(F)(F)F)cc1C(F)(F)F (stereo not shown) [F100, (Z)—N-(2-Methyl-1-(methylsulfonyl)propan-2-yl)-4-(1,4,4,4-tetrafluoro-3-(3,4,5-trichlorophenyl)but-1-en-1-yl)-2-(trifluoromethyl)benzamide] | 50 to 100 | 50 to 100 |  |
| C[C@H](CSCC(F)(F)F)NC(=O)c1ccc(/C(F)=C/C(c2cc(F)c(Cl)c(C(F)(F)F)c2)C(F)(F)F)cc1C(F)(F)F (stereo partly drawn) [F117, 4-((Z)-3-(4-Chloro-3-fluoro-5-(trifluoromethyl)phenyl)-1,4,4,4-tetrafluorobut-1-en-1-yl)-N—((R)-1-((2,2,2-trifluoroethyl)thio)propan-2-yl)-2-(trifluoromethyl)benzamide] | 50 to 100 | 50 to 100 |  |
| O=C(NCC[S+]([O-])CC(F)(F)F)c1ccc(/C(F)=C/C(c2cc(Cl)c(Cl)c(Cl)c2)C(F)(F)F)cc1C(F)(F)F (stereo not shown) [F50, (Z)-4-(1,4,4,4-tetrafluoro-3-(3,4,5-trichlorophenyl)but-1-en-1-yl)-N-(2-((2,2,2-trifluoroethyl)sulfinyl)ethyl)-2-(trifluoromethyl)benzamide] | 50 to 100 | 50 to 100 |  |
| C[C@H](CSCC(F)(F)F)NC(=O)c1ccc(/C(F)=C/C(c2ccc(Cl)c(Cl)c2)C(C)(F)F)cc1C(F)(F)F (stereo partly drawn) [F57, 4-((Z)-3-(3,4-Dichlorophenyl)-1,4,4-trifluoropent-1-en-1-yl)-N—((R)-1-((2,2,2-trifluoroethyl)thio)propan-2-yl)-2-(trifluoromethyl)benzamide] | 50 to 100 | 50 to 100 |  |
| C[C@H](CSCC(C)(F)F)NC(=O)c1ccc(/C(F)=C/C(c2cc(Cl)c(Cl)c(Cl)c2)C(F)(F)F)cc1C(F)(F)F (stereo partly drawn) [F113, N—((R)-1-((2,2-Difluoropropyl)thio)propan-2-yl)-4-((Z)-1,4,4,4-tetrafluoro-3-(3,4,5-trichlorophenyl)but-1-en-1-yl)-2-(trifluoromethyl)benzamide] | 50 to 100 | 50 to 100 |  |
| Cc1cc(/C(F)=C/C(c2cc(Cl)c(Cl)c(Cl)c2)C(F)(F)F)ccc1C(=O)N[C@H](C)CSCC(F)(F)F (stereo partly drawn) [F4, 2-Methyl-4-((Z)-1,4,4,4-tetrafluoro-3-(3,4,5-trichlorophenyl)but-1-en-1-yl)-N—((R)-1-((2,2,2-trifluoroethyl)thio)propan-2-yl)benzamide] | 50 to 100 | 50 to 100 | mortality at 0.05 µg/cm2 ([1]; 0.05 μg/cm^2, Table CD2 comparative data, read-out: Percent control (or mortality) BAW): 67%; mortality at 0.5 µg/cm2 ([1]; 0.5 μg/cm^2, Table CD2 comparative data, read-out: Percent control (or mortality) BAW): 100%; mortality at 5 µg/cm2 ([1]; 5 μg/cm^2, Table CD2 comparative data, read-out: Percent control (or mortality) BAW): 100%; mortality at 0.05 µg/cm2 ([2]; 0.05 μg/cm^2, Table CD2 comparative data, read-out: Percent control (or mortality) CL): 7%; mortality at 0.5 µg/cm2 ([2]; 0.5 μg/cm^2, Table CD2 comparative data, read-out: Percent control (or mortality) CL): 60%; mortality at 5 µg/cm2 ([2]; 5 μg/cm^2, Table CD2 comparative data, read-out: Percent control (or mortality) CL): 100% |
| C[C@H](CS(=O)(=O)CC(F)(F)F)NC(=O)c1ccc(/C(F)=C/[C@@H](c2cc(Cl)c(Cl)c(Cl)c2)C(F)(F)F)cc1C(F)(F)F [F136, 4-((S,Z)-1,4,4,4-tetrafluoro-3-(3,4,5-trichlorophenyl)but-1-en-1-yl)-N—((R)-1-((2,2,2-trifluoroethyl)sulfonyl)propan-2-yl)-2-(trifluoromethyl)benzamide] | 50 to 100 | 50 to 100 |  |
| C[C@H](CS(=O)(=O)CC(F)(F)F)NC(=O)c1ccc(/C(F)=C/C(c2cc(F)c(F)c(Br)c2)C(F)(F)F)cc1C(F)(F)F (stereo partly drawn) [F94, 4-((Z)-3-(3-Bromo-4,5-difluorophenyl)-1,4,4,4-tetrafluorobut-1-en-1-yl)-N—((R)-1-((2,2,2-trifluoroethyl)sulfonyl)propan-2-yl)-2-(trifluoromethyl)benzamide] | 50 to 100 | 50 to 100 |  |
| C[C@H](CS(=O)(=O)CC(F)(F)F)NC(=O)c1ccc(/C(F)=C/C(c2cc(Cl)c(Cl)c(C(F)F)c2)C(F)(F)F)cc1C(F)(F)F (stereo partly drawn) [F70, 4-((Z)-3-(3,4-dichloro-5-(difluoromethyl)phenyl)-1,4,4,4-tetrafluorobut-1-en-1-yl)-N—((R)-1-((2,2,2-trifluoroethyl)sulfonyl)propan-2-yl)-2-(trifluoromethyl)benzamide] | 50 to 100 | 50 to 100 |  |
| C[C@H](C[S+]([O-])CC(C)(F)F)NC(=O)c1ccc(/C(F)=C/C(c2cc(Cl)c(Cl)c(Cl)c2)C(F)(F)F)cc1C(F)(F)F (stereo partly drawn) [F96, N-((2R)-1-((2,2-Difluoropropyl)sulfinyl)propan-2-yl)-4-((Z)-1,4,4,4-tetrafluoro-3-(3,4,5-trichlorophenyl)but-1-en-1-yl)-2-(trifluoromethyl)benzamide] | 50 to 100 | 50 to 100 |  |
| CSC[C@@H](C)NC(=O)c1ccc(/C(F)=C/C(c2cc(Cl)c(Cl)c(Cl)c2)C(F)(F)F)cc1C(F)(F)F (stereo partly drawn) [F75, N—((R)-1-(Methylthio)propan-2-yl)-4-((Z)-1,4,4,4-tetrafluoro-3-(3,4,5-trichlorophenyl)but-1-en-1-yl)-2-(trifluoromethyl)benzamide] | 50 to 100 | 50 to 100 |  |
| C[C@H](C[S+]([O-])CC(F)F)NC(=O)c1ccc(/C(F)=C/C(c2cc(Cl)c(Cl)c(Cl)c2)C(F)(F)F)cc1C(F)(F)F (stereo partly drawn) [F86, N-((2R)-1-((2,2-Difluoroethyl)sulfinyl)propan-2-yl)-4-((Z)-1,4,4,4-tetrafluoro-3-(3,4,5-trichlorophenyl)but-1-en-1-yl)-2-(trifluoromethyl)benzamide] | 50 to 100 | 50 to 100 |  |
| Cc1cc(/C(F)=C/C(c2cc(Cl)c(Cl)c(Cl)c2)C(F)(F)F)ccc1C(=O)N[C@H](C)C[S+]([O-])CC(F)(F)F (stereo partly drawn) [F5, 2-Methyl-4-((Z)-1,4,4,4-tetrafluoro-3-(3,4,5-trichlorophenyl)but-1-en-1-yl)-N-((2R)-1-((2,2,2-trifluoroethyl)sulfinyl)propan-2-yl)benzamide] | 50 to 100 | 50 to 100 |  |
| C[C@H](CS(=O)(=O)CC(F)(F)F)NC(=O)c1ccc(/C(F)=C/C(c2cc(Cl)c(Cl)c(Cl)c2)C(F)(F)F)cc1Br (stereo partly drawn) [F8, 2-Bromo-4-((Z)-1,4,4,4-tetrafluoro-3-(3,4,5-trichlorophenyl)but-1-en-1-yl)-N—((R)-1-((2,2,2-trifluoroethyl)sulfonyl)propan-2-yl)benzamide] | 50 to 100 | 50 to 100 |  |
| C[C@H](CSCC(F)(F)F)NC(=O)c1ccc(/C(F)=C/C(c2ccc(Cl)c(Cl)c2)C(F)(F)F)cc1Br (stereo partly drawn) [F58, 2-Bromo-4-((Z)-3-(3,4-dichlorophenyl)-1,4,4,4-tetrafluorobut-1-en-1-yl)-N—((R)-1-((2,2,2-trifluoroethyl)thio)propan-2-yl)benzamide] | 50 to 100 | 50 to 100 |  |
| C=Cc1cc(C(/C=C(\F)c2ccc(C(=O)N[C@H](C)CS(=O)(=O)CC(F)(F)F)c(C(F)(F)F)c2)C(F)(F)F)cc(Cl)c1Cl (stereo partly drawn) [F73, 4-((Z)-3-(3,4-dichloro-5-vinylphenyl)-1,4,4,4-tetrafluorobut-1-en-1-yl)-N—((R)-1-((2,2,2-trifluoroethyl)sulfonyl)propan-2-yl)-2-(trifluoromethyl)benzamide] | 50 to 100 | 50 to 100 |  |
| Cc1cc(/C(F)=C/C(c2cc(Cl)c(Cl)c(Cl)c2)C(C)(F)F)ccc1C(=O)N[C@H](C)CSCC(F)(F)F (stereo partly drawn) [F13, 2-Methyl-4-((Z)-1,4,4-trifluoro-3-(3,4,5-trichlorophenyl)pent-1-en-1-yl)-N—((R)-1-((2,2,2-trifluoroethyl)thio)propan-2-yl)benzamide] | 50 to 100 | 50 to 100 |  |

Source: patent publication US10681908B2, “Molecules having pesticidal utility, and intermediates, compositions, and processes, related thereto” (Dow AgroSciences LLC, priority 2016, dated 2020)
